Assay results taken from patent US20250236608A1, “EGFR INHIBITORS” (Blueprint Medicines Corporation, priority 2022, published 2025).
pIC50: −log10 of the molar value.

Assays:
EGFR L858R = EGFR L858R (Homo sapiens (Human), UniProt P00533, L858R); assay: Biochemical EGFR inhibition assay, EGFR L858R; conditions: Caliper mobility shift; 1.0 mM ATP or ATP Km; read-out: Enz EGFR_L858R IC50
EGFR (d746-750) = EGFR (d746-750) (Homo sapiens (Human), UniProt P00533, DEL746-750); assay: Biochemical EGFR inhibition assay, EGFR (d746-750); conditions: Caliper mobility shift; 1.0 mM ATP or ATP Km; read-out: Enz EGFR_Exon19-del746-750 IC50
EGFR (d746-750), sequence (P00533 other isoform, or with tags, fused parts or gaps del 1-694/del 746-750 limits assumed): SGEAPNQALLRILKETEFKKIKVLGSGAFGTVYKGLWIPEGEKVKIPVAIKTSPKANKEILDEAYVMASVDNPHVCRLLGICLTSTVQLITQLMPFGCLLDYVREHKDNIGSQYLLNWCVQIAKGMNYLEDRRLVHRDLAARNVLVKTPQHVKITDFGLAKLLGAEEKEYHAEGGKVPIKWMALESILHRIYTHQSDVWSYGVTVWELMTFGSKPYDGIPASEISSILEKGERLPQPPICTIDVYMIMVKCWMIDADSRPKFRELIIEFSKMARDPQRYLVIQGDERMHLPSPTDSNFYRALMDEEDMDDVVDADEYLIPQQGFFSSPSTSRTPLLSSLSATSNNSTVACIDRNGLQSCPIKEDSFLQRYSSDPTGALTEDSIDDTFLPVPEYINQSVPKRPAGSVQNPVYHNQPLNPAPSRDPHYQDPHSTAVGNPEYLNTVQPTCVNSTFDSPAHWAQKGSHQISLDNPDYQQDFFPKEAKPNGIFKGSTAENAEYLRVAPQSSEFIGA

[1] = biological target: pEGFR (Tyr1068) in PC-9 cells (Ex19Del) (Homo sapiens (Human), UniProt P00533, DEL746-750); assay: PC-9 pEGFR AlphaLISA assay; format: cell-based; conditions: 4 hours incubation, p-EGFR (Tyr1068) AlphaLISA, read-out: Ext pEGFR_PC-9 Ex19Del IC50
pEGFR (Tyr1068) in PC-9 cells (Ex19Del), sequence (P00533 other isoform, or with tags, fused parts or gaps del 746-750): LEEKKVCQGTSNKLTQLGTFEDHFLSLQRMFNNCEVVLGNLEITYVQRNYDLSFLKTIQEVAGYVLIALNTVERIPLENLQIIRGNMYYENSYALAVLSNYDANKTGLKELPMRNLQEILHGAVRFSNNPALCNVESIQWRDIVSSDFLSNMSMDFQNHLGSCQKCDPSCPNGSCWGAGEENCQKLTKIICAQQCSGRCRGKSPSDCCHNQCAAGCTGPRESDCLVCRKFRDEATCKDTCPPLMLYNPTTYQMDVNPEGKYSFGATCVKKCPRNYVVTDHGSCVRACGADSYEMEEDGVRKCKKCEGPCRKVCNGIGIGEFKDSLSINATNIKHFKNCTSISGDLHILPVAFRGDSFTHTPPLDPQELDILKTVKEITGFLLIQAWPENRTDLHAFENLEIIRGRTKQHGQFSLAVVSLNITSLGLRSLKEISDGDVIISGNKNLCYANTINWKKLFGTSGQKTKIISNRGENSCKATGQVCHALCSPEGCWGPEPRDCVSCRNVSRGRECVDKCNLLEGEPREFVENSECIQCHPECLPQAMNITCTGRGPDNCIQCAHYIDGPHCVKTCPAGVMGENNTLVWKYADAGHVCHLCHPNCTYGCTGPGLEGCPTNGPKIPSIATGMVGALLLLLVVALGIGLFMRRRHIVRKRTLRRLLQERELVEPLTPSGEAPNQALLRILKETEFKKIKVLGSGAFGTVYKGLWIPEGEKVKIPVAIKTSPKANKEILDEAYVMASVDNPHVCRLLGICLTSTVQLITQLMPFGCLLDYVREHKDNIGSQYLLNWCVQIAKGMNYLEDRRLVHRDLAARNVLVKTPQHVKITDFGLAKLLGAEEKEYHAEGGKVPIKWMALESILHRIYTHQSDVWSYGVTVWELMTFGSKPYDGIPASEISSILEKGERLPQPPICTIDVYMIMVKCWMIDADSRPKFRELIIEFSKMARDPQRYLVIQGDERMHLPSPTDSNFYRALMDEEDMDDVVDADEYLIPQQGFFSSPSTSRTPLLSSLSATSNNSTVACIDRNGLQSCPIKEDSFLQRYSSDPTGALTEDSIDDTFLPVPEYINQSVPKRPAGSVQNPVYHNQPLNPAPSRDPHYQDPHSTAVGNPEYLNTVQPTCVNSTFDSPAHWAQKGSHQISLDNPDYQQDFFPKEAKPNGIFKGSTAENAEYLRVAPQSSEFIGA
Method in brief: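 Cells seeded in phenol-free DMEM with 10% FBS adhered overnight at 37° C./5% CO2, then were exposed for 4 hours to a 4-fold, 10-point compound dilution series. After lysis, phospho-EGFR was read by AlphaLISA SureFire Ultra, and IC50 was fitted from percent inhibition versus log concentration.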

EGFR L858R, sequence (P00533 25-1210 L858R): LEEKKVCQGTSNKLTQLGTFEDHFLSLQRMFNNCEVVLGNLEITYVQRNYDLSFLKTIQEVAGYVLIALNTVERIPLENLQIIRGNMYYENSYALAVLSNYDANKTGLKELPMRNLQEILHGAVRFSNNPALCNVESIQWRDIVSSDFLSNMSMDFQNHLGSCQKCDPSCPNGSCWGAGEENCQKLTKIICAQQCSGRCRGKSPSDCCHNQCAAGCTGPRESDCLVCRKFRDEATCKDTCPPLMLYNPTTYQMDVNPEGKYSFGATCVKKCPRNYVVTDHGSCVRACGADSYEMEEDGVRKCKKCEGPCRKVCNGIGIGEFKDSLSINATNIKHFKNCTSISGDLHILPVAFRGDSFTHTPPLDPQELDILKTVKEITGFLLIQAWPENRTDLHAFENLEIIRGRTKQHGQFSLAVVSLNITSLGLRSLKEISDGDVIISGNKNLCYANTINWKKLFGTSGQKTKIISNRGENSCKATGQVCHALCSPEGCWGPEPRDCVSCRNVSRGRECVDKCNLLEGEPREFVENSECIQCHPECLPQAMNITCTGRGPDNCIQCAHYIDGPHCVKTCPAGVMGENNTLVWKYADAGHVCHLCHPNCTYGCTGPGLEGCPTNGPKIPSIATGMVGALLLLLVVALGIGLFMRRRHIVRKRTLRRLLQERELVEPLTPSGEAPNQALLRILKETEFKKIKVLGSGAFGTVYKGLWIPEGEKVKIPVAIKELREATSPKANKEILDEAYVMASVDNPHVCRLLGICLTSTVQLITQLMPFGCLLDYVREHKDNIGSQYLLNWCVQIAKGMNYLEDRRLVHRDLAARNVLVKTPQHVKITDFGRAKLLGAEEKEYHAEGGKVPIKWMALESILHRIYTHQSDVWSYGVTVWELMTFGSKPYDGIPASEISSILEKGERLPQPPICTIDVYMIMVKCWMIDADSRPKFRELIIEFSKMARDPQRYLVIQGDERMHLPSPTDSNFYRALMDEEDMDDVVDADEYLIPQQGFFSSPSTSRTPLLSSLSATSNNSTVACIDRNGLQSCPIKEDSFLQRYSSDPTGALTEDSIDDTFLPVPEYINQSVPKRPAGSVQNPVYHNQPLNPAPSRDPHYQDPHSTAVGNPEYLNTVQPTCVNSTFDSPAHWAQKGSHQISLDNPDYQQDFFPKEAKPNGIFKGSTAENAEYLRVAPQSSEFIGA

pIC50 (EGFR L858R) | pIC50 (EGFR (d746-750)) | pIC50 [1] | Structure (SMILES)
8.64 | 8.92 | 7.97 | COc1cc2ncnc(-c3cn(C)nc3-c3ccccc3)c2cc1[C@@H](C)O (single isomer, unassigned) [Example 115, (R)-1-(7-methoxy-4-(1-methyl-3-phenyl-1H-pyrazol-4-yl)quinazolin-6-yl)ethan-1-ol or (S)-1-(7-methoxy-4-(1-methyl-3-phenyl-1H-pyrazol-4-yl)quinazolin-6-yl)ethan-1-ol]
8.54 | 8.80 | 7.95 | CCOc1cc2ncnc(-c3cn(C)nc3-c3ccccc3)c2cc1OC(=O)N1CCO[C@H](C)C1 [Example 73, 7-ethoxy-4-(1-methyl-3-phenyl-1H-pyrazol-4-yl)quinazolin-6-yl (R)-2-methylmorpholine-4-carboxylate]
8.47 | 8.68 | 8.52 | COc1cc2ncnc(-c3cn(C)nc3-c3ccccc3)c2nc1OC(=O)N1CCOC[C@H]1C [Example 56, 7-methoxy-4-(1-methyl-3-phenyl-1H-pyrazol-4-yl)pyrido[3,2-d]pyrimidin-6-yl (R)-3-methylmorpholine-4-carboxylate]
8.08 | 8.55 | 7.91 | COc1cc2ncnc(-c3cn(C)nc3-c3c(F)cccc3F)c2cc1OC(=O)N1CCOC[C@@H]1C [Example 67, 4-(3-(2,6-difluorophenyl)-1-methyl-1H-pyrazol-4-yl)-7-methoxyquinazolin-6-yl (S)-3-methylmorpholine-4-carboxylate]
8.70 | 9.22 | 8.96 | [2H]C([2H])([2H])n1cc(-c2ncnc3cc(OC)c(NC(=O)C4(C(F)(F)F)CC4)nc23)c(-c2ccccc2)n1 [Example 320, N-(7-methoxy-4-(1-(methyl-d3)-3-phenyl-1H-pyrazol-4-yl)pyrido[3,2-d]pyrimidin-6-yl)-1-(trifluoromethyl)cyclopropane-1-carboxamide]
8.74 | 9.00 | 8.92 | COc1cc2ncnc(-c3cn(C)nc3-c3ccc(F)cc3)c2cc1NC(=O)c1scnc1C [Example 304, N-(4-(3-(4-fluorophenyl)-1-methyl-1H-pyrazol-4-yl)-7-methoxyquinazolin-6-yl)-4-methylthiazole-5-carboxamide]
8.64 | 8.72 | 8.57 | CCn1cc([C@@H](C)Oc2nc3c(-c4cn(C)nc4-c4ccccc4)ncnc3cc2OC)nn1 [Example 35, (R)-6-(1-(1-ethyl-1H-1,2,3-triazol-4-yl)ethoxy)-7-methoxy-4-(1-methyl-3-phenyl-1H-pyrazol-4-yl)pyrido[3,2-d]pyrimidine]
9.00 | 9.30 | 8.96 | COc1cc2ncnc(-c3cn(C)nc3-c3ccccc3)c2cc1NC(=O)c1cnn(C)c1 [Example 294, N-(7-methoxy-4-(1-methyl-3-phenyl-1H-pyrazol-4-yl)quinazolin-6-yl)-1-methyl-1H-pyrazole-4-carboxamide]
8.80 | 9.00 | 9.40 | COc1cc2ncnc(-c3cn(C)nc3-c3ccccc3)c2nc1NC(=O)[C@H]1C[C@H]2C[C@H]2N1C [Example 419, (1R,3R,5R)—N-(7-methoxy-4-(1-methyl-3-phenyl-1H-pyrazol-4-yl)pyrido[3,2-d]pyrimidin-6-yl)-2-methyl-2-azabicyclo[3.1.0]hexane-3-carboxamide]

The next lines start with the compound.

Structure (SMILES) | pIC50 (EGFR L858R) | pIC50 (EGFR (d746-750)) | pIC50 [1]
COc1cc2ncnc(-c3cn(C)nc3-c3ccccc3)c2cc1NC(=O)c1ccnc(C)c1 [Example 194, N-(7-methoxy-4-(1-methyl-3-phenyl-1H-pyrazol-4-yl)quinazolin-6-yl)-2-methylisonicotinamide] | 8.85 | 9.15 | 8.77
CCC(=O)Nc1cc2c(-c3cn(C)nc3-c3ccccc3)ncnc2cc1-n1ccc(C)n1 [Example 450, N-(7-(3-methyl-1H-pyrazol-1-yl)-4-(1-methyl-3-phenyl-1H-pyrazol-4-yl)quinazolin-6-yl)propionamide] | 8.92 | 9.15 | 9.00
COc1cc2ncnc(-c3cn(C)nc3-c3ccccc3F)c2nc1NC(=O)[C@@]12COC[C@@H]1C2 (single isomer, unassigned) [Example 387, (1R,5R)—N-(4-(3-(2-fluorophenyl)-1-methyl-1H-pyrazol-4-yl)-7-methoxypyrido[3,2-d]pyrimidin-6-yl)-3-oxabicyclo[3.1.0]hexane-1-carboxamide or (1S,5S)—N-(4-(3-(2-fluorophenyl)-1-methyl-1H-pyrazol-4-yl)-7-methoxypyrido[3,2-d]pyrimidin-6-yl)-3-oxabicyclo[3.1.0]hexane-1-carboxamide] | 8.70 | 9.05 | 8.82
COc1cc2ncnc(-c3cn(C)nc3-c3ccccc3)c2nc1NC(=O)[C@@]1(C(F)(F)F)CCCN1C (single isomer, unassigned) [Example 429, (R)—N-(7-methoxy-4-(1-methyl-3-phenyl-1H-pyrazol-4-yl)pyrido[3,2-d]pyrimidin-6-yl)-1-methyl-2-(trifluoromethyl) pyrrolidine-2-carboxamide or (S)—N-(7-methoxy-4-(1-methyl-3-phenyl-1H-pyrazol-4-yl)pyrido[3,2-d]pyrimidin-6-yl)-1-methyl-2-(trifluoromethyl) pyrrolidine-2-carboxamide] | 8.23 | 8.57 | 7.94
COc1cc2ncnc(-c3cn(C)nc3-c3ccccc3F)c2nc1NC(=O)C1(C(F)(F)F)CC1 [Example 317, N-(4-(3-(2-fluorophenyl)-1-methyl-1H-pyrazol-4-yl)-7-methoxypyrido[3,2-d]pyrimidin-6-yl)-1-(trifluoromethyl)cyclopropane-1-carboxamide] | 8.57 | 8.92 | 8.82
CCOc1cc2ncnc(-c3cn(C)nc3-c3ccccc3)c2cc1[C@H](C)O (single isomer, unassigned) [Example 103, (S)-1-(7-ethoxy-4-(1-methyl-3-phenyl-1H-pyrazol-4-yl)quinazolin-6-yl)ethan-1-ol or (R)-1-(7-ethoxy-4-(1-methyl-3-phenyl-1H-pyrazol-4-yl)quinazolin-6-yl)ethan-1-ol] | 8.77 | 9.22 | 8.57
COc1cc2ncnc(-c3cn(C)nc3-c3ccc(F)cc3F)c2nc1NC(=O)[C@@]12C[C@@H]1CN(C)C2 (single isomer, unassigned) [Example 423, (1S,5S)—N-(4-(3-(2,4-difluorophenyl)-1-methyl-1H-pyrazol-4-yl)-7-methoxypyrido[3,2-d]pyrimidin-6-yl)-3-methyl-3-azabicyclo[3.1.0]hexane-1-carboxamide or (1R,5R)—N-(4-(3-(2,4-difluorophenyl)-1-methyl-1H-pyrazol-4-yl)-7-methoxypyrido[3,2-d]pyrimidin-6-yl)-3-methyl-3-azabicyclo[3.1.0]hexane-1-carboxamide] | 8.39 | 8.80 | 8.42
COc1cc2ncnc(-c3cn(CC(F)F)nc3-c3ccccc3)c2cc1C(C)(C)O [Example 122, 2-(4-(1-(2,2-difluoroethyl)-3-phenyl-1H-pyrazol-4-yl)-7-methoxyquinazolin-6-yl) propan-2-ol] | 8.72 | 8.89 | 8.55
CCOc1cc2ncnc(-c3cn(C)nc3-c3ccccc3)c2cc1NC(=O)[C@@]12C[C@@H]1CN(C)C2 (single isomer, unassigned) [Example 256, (1S,5S)—N-(7-ethoxy-4-(1-methyl-3-phenyl-1H-pyrazol-4-yl)quinazolin-6-yl)-3-methyl-3-azabicyclo[3.1.0]hexane-1-carboxamide or (1R,5R)—N-(7-ethoxy-4-(1-methyl-3-phenyl-1H-pyrazol-4-yl)quinazolin-6-yl)-3-methyl-3-azabicyclo[3.1.0]hexane-1-carboxamide] | 9.10 | 9.40 | 8.70
COc1cc2ncnc(-c3cn(C)nc3-c3c(F)cccc3F)c2cc1NC(=O)C1CC1 [Example 338, N-(4-(3-(2,6-difluorophenyl)-1-methyl-1H-pyrazol-4-yl)-7-methoxyquinazolin-6-yl)cyclopropanecarboxamide] | 8.72 | 8.92 | 8.64
COc1cc2ncnc(-c3cn(C)nc3-c3ccccc3F)c2nc1NC(=O)C12CC(N(C)C)(C1)C2 [Example 403, 3-(dimethylamino)-N-(4-(3-(2-fluorophenyl)-1-methyl-1H-pyrazol-4-yl)-7-methoxypyrido[3,2-d]pyrimidin-6-yl)bicyclo[1.1.1]pentane-1-carboxamide] | 8.38 | 8.92 | 8.30
COc1cc2ncnc(-c3cn(C)nc3-c3ccccc3)c2nc1NC(=O)[C@H](C)N(C)C [Example 390, (S)-2-(dimethylamino)-N-(7-methoxy-4-(1-methyl-3-phenyl-1H-pyrazol-4-yl)pyrido[3,2-d]pyrimidin-6-yl) propenamide] | 8.03 | 8.41 | 8.06
COc1cc2ncnc(-c3cn(C)nc3-c3ccccc3)c2cc1OC(=O)N1CCN2CCCC2C1 (stereo in doubt) [Example 85, 7-methoxy-4-(1-methyl-3-phenyl-1H-pyrazol-4-yl)quinazolin-6-yl (R)-hexahydropyrrolo[1,2-a]pyrazine-2(1H)-carboxylate] | 8.41 | 8.57 | 7.88
